Data set [1] relates to fibroblastes de lignée humaine. The experiment in a line: Production of extracellular matrix (MEC) proteins by fibroblasts, immunofluorescence / confocal microscopy. The note with it: tripeptide-1 à 10^-7M vs culture without peptide.
Excerpt: Exemple 1 Etude du tripeptide-1® sur la production de protéines de la MEC par les fibroblastes par immunofluorescence.
• ▪ Matériel : fibroblastes de lignée humaine. • ▪ Protocole : les fibroblastes sont mis en culture en présence ou en absence du tripeptide-1® à 10^-7M. • ▪ Etude microscopique par microscopie confocale.
Data set [2] concerns kératinocytes de lignée NCTC.
The subject of data set [3] is Fibroblastes de lignée MRC5.

Structures are written as SMILES. Where a SMILES comes first, the peptide text is derived from it.

Turning to `NCCCC[C@H](NC(=O)[C@H](Cc1c[nH]cn1)NC(=O)CN)C(=O)O` [tripeptide-1, H-Gly-His-Lys-OH] (H-Gly-His-Lys-OH), in data set [1], the “AUGMENTATION % - Collagène de type I” value is on record as “+ 305%”, the “AUGMENTATION % - Collagène de type II” value is “+ 105%”, the “AUGMENTATION % - Elastine” value is “+ 15%” and the “AUGMENTATION % - Fibronectine” value is given as “+ 155%”. Besides, the “AUGMENTATION % - Laminine” value in data set [1] is reported as “+ 85%”.

Take `CC/C=C\C/C=C\C/C=C\CCCCCCCC(=O)O` [acide alpha-linolénique]: in data set [2], the “acide EPA dans les cellules de kératinocytes” value is “apparition de l'acide EPA”, the “acide alpha-linolénique dans le surnageant” value is “aucune trace”, the “acide alpha-linolénique dans les cellules de kératinocytes” value is given as “quantités importantes” and the “acides EPA et DHA dans le surnageant” value is “Apparition des acides EPA et DHA”. In data set [3], the “acide alpha-linolénique dans le surnageant” value was “plus faible quantité que la quantité de départ” and the “acides EPA et DHA dans le milieu surnageant” value was “Apparition des acides EPA et DHA”.

The values are drawn from EP2165698B1, “Cosmetic composition designed to protect damaged skin” (Universkin, priority 2008, dated 2016).
